Test results: patent US6379665B1, “Phospholipase D polypeptide and DNA sequences” (Onyx Pharmaceuticals, Inc., priority 1996, dated 2002)

What was measured:
[1] = test system: PLD1; experiment: basic PLD assay with purified PLD1 and activators (headgroup-labeled phosphatidylcholine); format: biochemical, human; design: increase in maximal effect of PKC- on PLD1: dose or concentration left out as unconfirmed; details: for lipid content giving maximal activation of PLD1: lipid fraction of vesicles; for stimulation of PLD1 activity by lipid: vesicles with 7% acidic lipid in PE/PS background
Protocol: The basic PLD assay was performed as described in Hammond, J. Biol. Chem. 270: 29640-43 (1995) using headgroup-labeled phosphatidyl-choline. Lipids were prepared and labeled. Labeled choline was obtained from American Radiolabelled Chemicals Inc. (Catalog No. ART 284) and extracted with chloroform and methanol 100 ml chloroform/100 ml methanol/90 ml water (100,000 dpm/assay; 1.6 ml). The mixture was vortexed, spun and the bottom layer collected and added to the lipid mixture to give a final concentration of 67 mM PE (Avanti Polar Lipids, Alabaster, Ala., catalog no 850757), 7.6 mM PIP2 (suspended in 20 mM Hepes, pH 7) and 5.4 mM PC (Avanti catalog no 850457). The labeled choline/lipid mixture was sonicated and vortexed until the lipids are dissolved. Sf9 cells were plated onto large flasks (30×10^6 cells/flask) and left to adhere. Once adhered, medium was removed and the cells were infected with virus (at 1:5 or 1:10) for 1 hour with gentle rocking. After that time, virus was removed and fresh medium added, and the cells left to grow for 48 hours at 27 C. Medium was removed from the flask and the cells were washed once with PBS and then lysed in 5 ml lysis buffer (25 mM Tris, 5 mM EDTA, pH 7.5). Cells were scraped out of the flask, placed on ice, sonicated for 10 seconds and centrifuged in a […] centrifuge for 10 minutes at 700 rpm. Supernatant was removed and spun at 30,000 rpm for 60 minutes. Supernatant from this second centrifugation was then removed, and the pellet was resuspended in 0.5 ml lysis buffer, votexed and allowed to settle out.
For the assay, the resulting supernatant containing PLD1 enzyme (1-10 ml) was combined with G-protein(s), 20 ml assay buffer (30 mM Na-Hepes, pH 7.5, 3 mM EGTA, 80 mM KCl, 1 mM DTT, 3.0 mM MgCl2 and 2.0 mM CaCl2) and 10 mM Hepes to make a total volume of 50 ml. 50 ml of the labeled lipid mixture was added, vortexed thoroughly, and incubated at 37 C. for 30 minutes. The reaction was stopped by adding 200 ml of 10% TCA and 100 ml of 10 mg/ml BSA and centrifugation for 5 minutes at 10,000 rpm. […] of the supernatant was removed and counted in 2 ml of scintillation fluid using a LKB scintillation counter for 60 seconds. This was the basic assay used for the following experiments; any modifications were as described below.
To investigate the dependence of enzyme activity on calcium and magnesium, the concentrations of calcium and magnesium ions of the assay medium were varied. For some assays the lipid component of the vesicles was altered. Ptdins (4,5)P2 was purified from a lipid extract of bovine brain as described in Hammond, supra. Synthetic Ptdins (3,4,5)P3 was obtained from Glenn Prestwich, Dept. of Chemistry, SUNY Stony Brook. [^32P]-labeled phospholipids were isolated from extracts of U937 cells labeled overnight with [^32P] PO4 2- as described in Hammond, supra.
Vesicles containing 7% acidic lipid in a background of PE/PS were employed in the foregoing assay. The lipids tested were PI(4,5)P2, PI(3,4,5)P3, PI4P and PI.
ARF-stimulated PLD1activity was determined as the free concentrations of these ions were varied in the assay medium. PLD1 activity was insensitive to changes in Ca^2+ concentration over a side range (<10^−8 M to 10^−2 M). By contrast, ARF-stimulated PLD1 activity was dependent on Mg^2+ with half-maximal activity observed at approximately 10^−4 M.
PLD1 was incubated with increasing concentrations of purified GTP S-activated ARF1(ADP-ribosylation factor 1), RhoA, Rac1 and cdc42. […] RhoA and Rac1 stimulated the enzyme approximately 10- and 13-fold respectively and cdc42 produced an approximately 5-fold activation. Effects of ARF and Rac1 were clearly saturable and, although the concentrations of purified RhoA and cdc42 obtained limited the final concentrations achieved in the assay, at the highest concentrations used, effects of these activators also appeared to be approaching saturation. Activation of PLD1 by these G-proteins was strictly dependent on GTP S. […]

[2] = test system: HL-60 cells; experiment: RT-PCR quantification of hPLD2 during dbcAMP-induced HL-60 cell differentiation; format: cell-based, human; details: 0.5 mM dbcAMP
Protocol: From the data of Example 7, it was known that a human analog of mPLD2 existed. mPLD2 primers were made from the expressed sequence tags existing in GenBank. To analyze changes in the levels of hPLD2 activity during HL-60 cell differentiation induced by dcbAMP, HL-60 cells maintained in RPMI-1640 medium supplemented with 10% fetal bovine serum, 100 units.ml penicillin and 100 µg/ml streptomycin in a humidified atmosphere containing 5% CO2, at 37 C. were grown in RPMI-1640 medium without fetal bovine serum for 24 hours. Differentiation was initiated by the addition of 0.5 mM dbcAMP. Levels of hPLD2 were quantified later by RT-PCR. Total RNA was isolated from the HL-60 cells at the exponential growth stage by the acid guanidine thiocyanate method following the protocol of Chomczynski, Anal. Biochem. 162:156-62(1992). Two g of RNA was reverse transcribed by using random hexamer mixed primers. The number of amplification cycles were determined to individual primer sets in order to maintain exponential rate of product amplification. Amplified DNA fragments were subjected to electrophoresis on 1.5% agarose gel and visualized by ethidium bromide staining. The intensity of bands was quantified by a densitometer (Atto Densitograph, Tokyo, Japan). Primer E (Forward):
5′[…] 3′. Primer F (reverse):
5′[…] 3′. Amplification conditions used were 94 C. for 30 seconds, 60 C. for 1 minute, and 72 C. for 1 minute; 25-27 cycles.

O=P(O)(O)O[C@@H]1[C@H](O)[C@H](O)[C@@H](OP(=O)(O)O)[C@H](OP(=O)(O)O)[C@H]1O [inositol 1,4,5 trisphosphate]
activation of PLD1 or block of activation by PI(4,5)P2 or PI(3,4,5)P3 ([1]; soluble, concentrations up to […]): neither activated PLD1 nor blocked activation

PI(4,5)P2
lipid content giving maximal activation of PLD1 [1]: approximately 7% | stimulation of PLD1 activity by lipid [1]: stimulated

ARF1: Human ARF1, bacterially-expressed and purified G-protein, GTP S-activated
stimulation of PLD1 (maximal, concentration series) ([1]; GTP S-activated G-protein, increasing concentrations): approximately 50 fold | activation of PLD1 by activator alone ([1]; maximally effective concentration: ARF1 4.7 M, RhoA 3.8 M, Rac1 5.3 M, cdc42 5.5 M, PKC- 0.043 M): 49 fold | activation of PLD1 over basal combined with PKC- ([1]; plus maximally effective PKC-): 145 fold

phosphotidylinositol [PI]
stimulation of PLD1 activity by lipid [1]: Only PI(4,5)P2 and PI(3,4,5)P3 stimulated

phosphotidylinositol 4-phosphate [PI4P]
stimulation of PLD1 activity by lipid [1]: Only PI(4,5)P2 and PI(3,4,5)P3 stimulated

[Mg+2] [Mg^2+]
EC50 ([1]; ARF-stimulated PLD1, free ion concentration, read-out: concentration for half-maximal ARF-stimulated PLD1 activity): ~100 µM

CCCCCCCCCCCCCC(=O)O[C@@H]1[C@@H](C)[C@@]2(O)[C@@H](C=C(CO)C[C@]3(O)C(=O)C(C)=C[C@@H]23)[C@@H]2C(C)(C)[C@]12OC(C)=O [PMA, phorbolmyristate acetate]
increase in potency with which PKC- stimulated PLD1 ([1]; 100 mM PMA in assay medium): approximately 10 fold | increase in maximal effect of PKC- on PLD1 ([1]; PMA in assay medium): approximately 1.5 fold

[Ca+2] [Ca^2+]
sensitivity of PLD1 activity to ion concentration ([1]; ARF-stimulated, <10^−8 M to 10^−2 M): insensitive

PI(3,4,5)P3
lipid content giving maximal activation of PLD1 [1]: approximately 7% | stimulation of PLD1 activity by lipid [1]: stimulated

hPLD2: human analog of mPLD2
increase in level (printed as activity) on day 1 ([2]; day 1, RT-PCR): approximately 8 fold | increase in level (printed as activity) on day 2 ([2]; day 2, RT-PCR): approximately 12 fold | increase in level (printed as activity) on day 3 ([2]; day 3, RT-PCR): approximately 20 fold
